In patent publication US20140221385A1, “COMBINATIONS OF SEROTONIN RECEPTOR AGONISTS FOR TREATMENT OF MOVEMENT DISORDERS” (CONCIT PHARMA APS, priority 2011, published 2014):

Legend:
[1] = tested on: 6-OHDA unilateral lesion model rats; assay: Forepaw adjusting steps (FAS) test, 6-OHDA induced akinesia; assay type: in vivo, rat; conditions: for average percentage of adjusting steps (impaired paw to intact paw): L-DOPA 3 mg/kg with 15 mg/kg benserazide s.c. 60 min pretest
[2] = tested on: unilaterally 6-OHDA-lesioned rats; assay: L-DOPA induced AIMs and drugs screening test in the 6-OHDA rat model; assay type: in vivo; conditions: for L-DOPA-induced dyskinesia (AIMs): Example XIII; for L-DOPA induced AIMs (Lim+Ax+OI): Example X, FIG. 5
Method: 6-OHDA (6-hydroxydopamine) is a neurotoxin that selectively kills dopaminergic and noradrenergic neurons and induces a reduction of dopamine levels in the brain. Administration of L-DOPA to unilaterally 6-OHDA-lesioned rats induces abnormal involuntary movements (ATMs). These are axial, limb and oral movements that occur only on the body side that is […] to the lesion.
DA-denervating lesions are performed by unilateral injection of 6-OHDA in the ascending nigrostriatal pathway. Rats were anesthetized with pentobarbital sodium 40 mg/kg (i.p.) and positioned in a stereotactic frame. 6-OHDA is injected into the right ascending DA bundle at the following coordinates (in mm) relative to bregma and dural surface: (1) toothbar position −2.3, A=−4.4, L=1.2, V=7.8, (7.5 ug 6-OHDA), (2) toothbar position +3.4, A=−4.0, L=0.8, V=8.0 mm (6 ug 6-OHDA). The neurotoxin injections are performed at a rate of 1 ul/min, and the injection cannula is left in place for an additional 2-3 min thereafter. Two weeks after surgery rats with nearly complete (>90%) lesions are selected by means of an amphetamine-induced rotation test. The animals are placed in plastic Perspex bowls (30 cm in diameter) and the rotational behavior (360° turns) is recorded by an automated rotometer for 90 min after the i.p. injection of 2.5 mg/kg d-amphetamine sulphate. […] Animals are then allocated into two well-matched sub-groups (according to the amphetamine rotation) and receive daily treatment as described below.
L-DOPA methyl ester (Sigma-Aldrich, Germany) is given at the dose of 6 mg/kg, combined with 15 mg/kg of benserazide HCl (Sigma-Aldrich, Germany). […] The selected rats are allocated groups of 9-12 animals each, which are balanced with the respect to AIM severity. The animals are then treated with the drug and drug combinations as described below.
AIMs ratings are performed by an investigator who was kept unaware of the pharmacological treatment administered to each rat (experimentally blinded). […] The AIM's are classified into four subtypes:
(A) axial AIMs, i.e., dystonic or choreiform torsion of the trunk and neck towards the side contralateral to the lesion. In the mild cases: lateral flexion of the neck or torsional movements of the upper trunk towards the side contralateral to the lesion. With repeated injection of L-DOPA, this movement may develop into a pronounced and continuous dystonia-like axial torsion. (B) limb AIMs, i.e., jerky and/or dystonic movements of the forelimb contralateral to the lesion. In mild cases: hyperkinetic, jerky stepping movements of the forelimb contralateral to the lesion, or small circular movements of the forelimb to and from the snout. As the severity of dyskinesia increases (which usually occurs with repeated administration of L-DOPA), the abnormal movements increase in amplitude, and assume mixed dystonic and hyperkinetic features. Dystonic movements are caused by sustained co-contraction of agonist/antagonist muscles; they are slow and force a body segment into unnatural positions. Hyperkinetic movements are fast and irregular in speed and direction. […] (C) orolingual AIMs, i.e., twitching of orofacial muscles, and bursts of empty masticatory movements with protrusion of the tongue towards the side contralateral to the lesion. This form of dyskinesia affects facial, tongue, and masticatory muscles. It is recognizable as bursts of empty masticatory movements, accompanied to a variable degree by jaw opening, lateral translocations of the jaw, twitching of facial muscles, and protrusion of the tongue towards the side contralateral to the lesion. […] Each of the four subtypes are scored on a severity scale from 0 to 4, where 0=absent, 1=present during less than half of the observation time, 2=present for more than half of the observation time, 3=present all the time but suppressible by external stimuli, and 4=present all the time and not suppressible by external stimuli.

[3] = tested on: Parkinson's disease; conditions: cited from earlier work
[4] = tested on: naïve rats; assay: Open field test (Example VI); assay type: in vivo, rat; conditions: pentobarbital 15 mg/kg i.p. 30 min before test, positive control; FIG. 3
Method: The open field test was used to determine the effects of drug on locomotor activity. Rats were put in open-field chambers (dimensions 40 cm×40 cm×40 cm) 30 minutes after dosing. After a 15 minutes habituation, locomotion were recorded and analysed by Enthovision Video Tracking Software (Noldus Information Technology, Netherlands) for 60 minutes. All locomotor activities were done during dark phase and to eliminate olfactory cues, the arena was thoroughly cleaned with 70% v/v ethanol between each test.
Group setting for compound tests: Vehicle: Saline, i.p., 30 min before test, n=10 Positive control: Pentobarbital 15 mg/kg, i.p. 30 min before test, n=10
Zolmitriptan 3 mg/kg, i.p. 5 min before buspirone Buspirone 1 mg/kg, i.p. 30 min before test, n=10
Statistical analysis: The total locomotor activity is expressed as total moved distance (cm) and average velocity (cm/s) during 60 minutes. The data were analysed using One-Way ANOVA and the Tukey post-hoc test. The locomotor activity in six time point is expressed as moved distance (cm) and average velocity (cm/s) every 10 minutes. The data were analysed using One-Way ANOVA and the Tukey post-hoc test in each time point.

[5] = tested on: Sprague-Dawley (SD) rats; assay: Rotarod test (Example V); assay type: in vivo, rat; conditions: pentobarbital 15 mg/kg i.p. 30 min before test, positive control; FIG. 2
Method: In brief, the animals (30 SD male rats (180-220 g, bred in house, originally from SLAC Laboratory Animal Co. Ltd) at 9-week of age) were trained twice a day for a 3-day period. […] Each training trial was ended if the animal fell off or grips the device and spun around for two consecutive revolutions. The time that rat stayed on the Rotarod was recorded. The staying duration recorded at last training trail was used as baseline. Rats were grouped according a randomly distribution of baseline.
For the test session on the fourth day, the rats were evaluated on the Rotarod with the same setting as above at 30 min after dosing. The rats were dosed with drugs as described below. Dosing and Rotarod measurement were conducted by two scientists separately. Pentobarbital (15 mg/kg. i.p.) was used a as a positive control.
Vehicle: Saline, i.p., 30 min before test, n=10 Positive control: Pentobarbital 15 mg/kg, i.p. 30 min before test, n=10
The data were analyzed using One-Way ANOVA and the Tukey post-hoc test.

[6] = tested on: Huntington's disease; conditions: one patient suffering from Huntington's disease; cited from earlier work
[7] = tested on: LID; conditions: cited from earlier work

Structure (SMILES): N[C@@H](Cc1ccc(O)c(O)c1)C(=O)O [L-DOPA, 3,4-dihydroxyphenylalanine]
- average percentage of adjusting steps (impaired paw to intact paw) ([1]; first study): 77.8%
- 6-OHDA induced akinesia, forelimb use ([1]; first study, acute L-DOPA 3 mg/kg with 15 mg/kg benserazide): alleviated 6-OHDA induced akinesia by increasing the forelimb use
- forelimb use ([1]; second study, L-DOPA 3 mg/kg with 15 mg/kg benserazide HCl): significantly increase the forelimb use
- average percentage of adjusting steps (impaired paw to intact paw) ([1]; second study): 77.7%

Structure (SMILES): O=C1CC2(CCCC2)CC(=O)N1CCCCN1CCN(c2ncccn2)CC1 [buspirone, 8-[4-(4-pyrimidin-2-ylpiperazin-1-yl)butyl]-8-azaspiro[4.5]decane-7,9-dione]
- L-DOPA-induced AIM (Total AIMs) ([2]; Example IV, FIG. 1, buspirone 1 mg/kg i.p. given alone): only partly reduced AIM
- L-DOPA-induced AIM (Total AIMs) ([2]; Example VII, FIG. 4, buspirone 0.5 mg/kg i.p. given alone): only partly reduced AIM
- L-DOPA-induced dyskinesia (AIMs) ([2]; buspirone 0.25 and 0.5 mg/kg s.c. 25 min before test): significantly reduced L-DOPA-induced dyskinesia
- disability ratings ([3]; 100 mg/day): significant worsening of disability ratings
- dyskinesia ([3]; 100 mg/day): reduced dyskinesia
- effects on Parkinson's disease or dyskinesia ([3]; 10-60 mg/day): did not have any effects on Parkinson's disease or dyskinesia

Structure (SMILES): CCCC(C)C1(CC)C(=O)NC(=O)NC1=O (stereo not shown) [pentobarbital]
- open field locomotor activity (total move distance) [4]: significantly reduced motor performance
- rotarod performance (time on the rod) [5]: significantly reduced time spend on the rotarod

Structure (SMILES): O=C1[C@H]2CCCC[C@H]2C(=O)N1CCCCN1CCN(c2nsc3ccccc23)CC1 [perospirone, (3aR, 7aS)-2-{4-[4-(1,2-benzisothiazol-3-yl)piperazin-1-yl]butyl}hexahydro-1H-isoindole-1,3(2H)-dione]
- involuntary movement [6]: could reduce involuntary movement

Structure (SMILES): Fc1ccc(-c2cncc(CNC[C@H]3CCc4ccccc4O3)c2)cc1 [sarizotan, 1-[(2R)-3,4-dihydro-2H-chromen-2-yl]-N-([5-(4-fluorophenyl)pyridin-3-yl]methyl)methanamine]
- LID ([7]; phase 2A study and open labeled study): reduced LID
- LID, effect compared to placebo ([7]; several large phase 2b studies): no significant effects

Structure (SMILES): O=C1[C@@H]2[C@@H]3CC[C@@H](C3)[C@@H]2C(=O)N1CCCCN1CCN(c2ncccn2)CC1 [tandospirone, (1R,2R,6S,7S)-4-{4-[4-(pyrimidin-2-yl)piperazin-1-yl]butyl}-4-azatricyclo[5.2.1.02,6]decane-3,5-dione]
- L-DOPA induced AIMs (Lim+Ax+OI) ([2]; tandospirone 1 mg/kg i.p. 30 min before test): partially and briefly reduce AIMs
- L-DOPA induced AIMs (Lim+Ax+OI) ([2]; tandospirone 2 mg/kg i.p. 30 min before test): partially and briefly reduce AIMs
- L-DOPA-induced dyskinesia (AIMs) ([2]; tandospirone 1 and 2 mg/kg i.p. 25 min before test): significantly reduced L-DOPA-induced dyskinesia

Structure (SMILES): CN(C)CCc1c[nH]c2ccc(C[C@H]3COC(=O)N3)cc12 [zolmitriptan, (S)-4-({3-[2-(dimethylamino)ethyl]-1H-indol-5-yl}methyl)-1,3-oxazolidin-2-one]
- L-DOPA-induced AIM (Total AIMs) ([2]; Example IV, FIG. 1, zolmitriptan 10 mg/kg i.p. given alone): did not reduce AIM
